Marks after values point to notes of the source that are not given here.
How the values were obtained:
Test in all cases: imazapyr whole plant greenhouse test (Example 2)
Type in all cases: in vivo
[1] = test system: sunflower line L2, A205V; settings: dose 6 (6x, 480 g ai/ha)
Procedure: (§1) Seeds were sown in Petri dishes and, after germination, plantlets were transplanted to pots of 10 cm of diameter in a potting media consisting of equal parts of vermiculite, soil and sand. Plants were grown in a greenhouse under natural light conditions supplemented with 400 W sodium halide lamps to provide a 16 hr daylength. Day/night temperatures were 25 and 20 ° C., respectively. At the V2-V4 stage (Schneiter & Miller (1981) Crop Sci. 21:901-903) 10 plants of each genotype were randomly assigned to each treatment consisting of eight imazapyr doses (0, 40, 80, 160, 240, 320, 400 and 480 g ai/ha, corresponding to untreated, 0.5×, 1×, 2×, 3×, 4×, 5× and 6×, respectively), and a zero-time biomass determination. Experiment was arranged as a randomized block design with a full factorial (sunflower line×treatment) arrangement of treatments and 10 replications.
(§2) On the day of herbicide application ten plants of each genotype were cut at the cotyledonal node and dried at 60° C. for 48 hrs for zero-time dried weight determination.
(§3) The remaining plants were maintained for 14 days after imazapyr treatment (DAT) and their height, Phytotoxicity Index (PI) and above ground dry biomass were determined Height was determined as the distance between the cotyledonal node and the apex of each plant. Above ground biomass data from each line were converted to biomass accumulation after application by subtracting the appropriate average zero- time biomass from each sample. Dry biomass data were converted to percentages of the untreated control plants within each line to allow direct comparisons between groups.

[2] = test system: sunflower line L3 (cmsGM40), A122T
Procedure: as §1, §2, §3

[3] = test system: sunflower genotypes carrying A205V (mean of H1, L1, L2); settings: for Phytotoxicity Index (0-9) 14 days after treatment / biomass accumulation 14 days after treatment, % of untreated / plant height 14 days after treatment, % of untreated: A205V Mean
Procedure: as §1, §2, §3

[4] = test system: sunflower line L4, A122T
Procedure: as §1, §2, §3

Which “plant height 14 days after treatment, % of untreated” value [1] does the source give for `CC(C)C1(C)N=C(c2ncccc2C(=O)O)NC1=O` (centres unmarked) [imazapyr] here?
The value was 29.3%.

And the “Phytotoxicity Index (0-9) 14 days after treatment” value (“Phytotoxicity Index (0-9) 14 days” for short) ([2]; dose 0.5 (0.5x, 40 g ai/ha))?
The value was 0.4.

And the “biomass accumulation 14 days after treatment, % of untreated” value ([2]; dose 0.5 (0.5x, 40 g ai/ha))?
Its value is 96.6%.

And the “plant height 14 days after treatment, % of untreated” value ([2]; dose 0.5 (0.5x, 40 g ai/ha))?
Its value is 100.4%.

And the “Phytotoxicity Index (0-9) 14 days” value ([2]; dose 1 (1x, 80 g ai/ha))?
Its value is 0.4.

What about the “biomass accumulation 14 days after treatment, % of untreated” value ([2]; dose 1 (1x, 80 g ai/ha)) of the same molecule?
Its value is 93.9%.

What about the “plant height 14 days after treatment, % of untreated” value ([2]; dose 1 (1x, 80 g ai/ha)) of the same molecule?
The value was 99.9%.

And the “Phytotoxicity Index (0-9) 14 days” value ([2]; dose 2 (2x, 160 g ai/ha))?
The value was 0.4.

What about the “biomass accumulation 14 days after treatment, % of untreated” value ([2]; dose 2 (2x, 160 g ai/ha)) of the same molecule?
The value was 81.6%.

What about the “plant height 14 days after treatment, % of untreated” value ([2]; dose 2 (2x, 160 g ai/ha)) of the same molecule?
Its value is 92.0%.

What about the “Phytotoxicity Index (0-9) 14 days” value ([2]; dose 3 (3x, 240 g ai/ha)) of the same molecule?
The value was 0.5.

What about the “biomass accumulation 14 days after treatment, % of untreated” value ([2]; dose 3 (3x, 240 g ai/ha)) of the same molecule?
Its value is 75.8%.

What about the “plant height 14 days after treatment, % of untreated” value ([2]; dose 3 (3x, 240 g ai/ha)) of the same molecule?
The value was 90.5%.

And the “Phytotoxicity Index (0-9) 14 days” value ([2]; dose 4 (4x, 320 g ai/ha))?
The value was 1.0.

What about the “biomass accumulation 14 days after treatment, % of untreated” value ([2]; dose 4 (4x, 320 g ai/ha)) of the same molecule?
The value was 75.0%.

What about the “plant height 14 days after treatment, % of untreated” value ([2]; dose 4 (4x, 320 g ai/ha)) of the same molecule?
Its value is 90.8%.

And the “Phytotoxicity Index (0-9) 14 days” value ([2]; dose 5 (5x, 400 g ai/ha))?
The value was 2.0.

And the “biomass accumulation 14 days after treatment, % of untreated” value ([2]; dose 5 (5x, 400 g ai/ha))?
The value was 60.1%.

What about the “plant height 14 days after treatment, % of untreated” value ([2]; dose 5 (5x, 400 g ai/ha)) of the same molecule?
The value was 84.4%.

What about the “Phytotoxicity Index (0-9) 14 days” value ([2]; dose 6 (6x, 480 g ai/ha)) of the same molecule?
The value was 2.5.

And the “biomass accumulation 14 days after treatment, % of untreated” value ([2]; dose 6 (6x, 480 g ai/ha))?
Its value is 59.6%.

What about the “plant height 14 days after treatment, % of untreated” value ([2]; dose 6 (6x, 480 g ai/ha)) of the same molecule?
Its value is 84.4%.

And the “Phytotoxicity Index (0-9) 14 days” value ([3]; dose 0.5 (0.5x, 40 g ai/ha))?
Its value is 0.

And the “biomass accumulation 14 days after treatment, % of untreated” value ([3]; dose 0.5 (0.5x, 40 g ai/ha))?
The value was 95.3* %.

And the “plant height 14 days after treatment, % of untreated” value ([3]; dose 0.5 (0.5x, 40 g ai/ha))?
Its value is 99.6%.

What about the “Phytotoxicity Index (0-9) 14 days” value ([3]; dose 1 (1x, 80 g ai/ha)) of the same molecule?
Its value is 0.

And the “biomass accumulation 14 days after treatment, % of untreated” value ([3]; dose 1 (1x, 80 g ai/ha))?
The value was 85.5** %.

What about the “plant height 14 days after treatment, % of untreated” value ([3]; dose 1 (1x, 80 g ai/ha)) of the same molecule?
The value was 99.2%.

And the “Phytotoxicity Index (0-9) 14 days” value ([3]; dose 2 (2x, 160 g ai/ha))?
Its value is 2.2*.

What about the “biomass accumulation 14 days after treatment, % of untreated” value ([3]; dose 2 (2x, 160 g ai/ha)) of the same molecule?
Its value is 62.8** %.

And the “plant height 14 days after treatment, % of untreated” value ([3]; dose 2 (2x, 160 g ai/ha))?
Its value is 73.7** %.

And the “Phytotoxicity Index (0-9) 14 days” value ([3]; dose 3 (3x, 240 g ai/ha))?
The value was 5.1**.

What about the “biomass accumulation 14 days after treatment, % of untreated” value ([3]; dose 3 (3x, 240 g ai/ha)) of the same molecule?
Its value is 48.1** %.

What about the “plant height 14 days after treatment, % of untreated” value ([3]; dose 3 (3x, 240 g ai/ha)) of the same molecule?
Its value is 50.1** %.

And the “Phytotoxicity Index (0-9) 14 days” value ([3]; dose 4 (4x, 320 g ai/ha))?
The value was 7.4**.

What about the “biomass accumulation 14 days after treatment, % of untreated” value ([3]; dose 4 (4x, 320 g ai/ha)) of the same molecule?
Its value is 33.5** %.

And the “plant height 14 days after treatment, % of untreated” value ([3]; dose 4 (4x, 320 g ai/ha))?
Its value is 31.5** %.

What about the “Phytotoxicity Index (0-9) 14 days” value ([3]; dose 5 (5x, 400 g ai/ha)) of the same molecule?
The value was 8.2**.

And the “biomass accumulation 14 days after treatment, % of untreated” value ([3]; dose 5 (5x, 400 g ai/ha))?
The value was 28.7** %.

And the “plant height 14 days after treatment, % of untreated” value ([3]; dose 5 (5x, 400 g ai/ha))?
Its value is 27.7** %.

What about the “Phytotoxicity Index (0-9) 14 days” value ([3]; dose 6 (6x, 480 g ai/ha)) of the same molecule?
The value was 8.2**.

And the “biomass accumulation 14 days after treatment, % of untreated” value ([3]; dose 6 (6x, 480 g ai/ha))?
The value was 26.1** %.

What about the “plant height 14 days after treatment, % of untreated” value ([3]; dose 6 (6x, 480 g ai/ha)) of the same molecule?
The value was 30.4** %.

What about the “height reduction, value reached” value ([3]; A205V homozygous, from 2x to 6x, of the untreated controls) of the same molecule?
The value was 69.6%.

What about the “Phytotoxicity Index (0-9) 14 days” value ([4]; dose 0.5 (0.5x, 40 g ai/ha)) of the same molecule?
Its value is 0.0.

What about the “biomass accumulation 14 days after treatment, % of untreated” value ([4]; dose 0.5 (0.5x, 40 g ai/ha)) of the same molecule?
The value was 100.0%.

What about the “plant height 14 days after treatment, % of untreated” value ([4]; dose 0.5 (0.5x, 40 g ai/ha)) of the same molecule?
The value was 100.0%.

And the “Phytotoxicity Index (0-9) 14 days” value ([4]; dose 1 (1x, 80 g ai/ha))?
The value was 0.0.

And the “biomass accumulation 14 days after treatment, % of untreated” value ([4]; dose 1 (1x, 80 g ai/ha))?
The value was 99.1%.

What about the “plant height 14 days after treatment, % of untreated” value ([4]; dose 1 (1x, 80 g ai/ha)) of the same molecule?
The value was 100.0%.

And the “Phytotoxicity Index (0-9) 14 days” value ([4]; dose 2 (2x, 160 g ai/ha))?
Its value is 0.0.

What about the “biomass accumulation 14 days after treatment, % of untreated” value ([4]; dose 2 (2x, 160 g ai/ha)) of the same molecule?
Its value is 97.0%.

What about the “plant height 14 days after treatment, % of untreated” value ([4]; dose 2 (2x, 160 g ai/ha)) of the same molecule?
Its value is 101.8%.

What about the “Phytotoxicity Index (0-9) 14 days” value ([4]; dose 3 (3x, 240 g ai/ha)) of the same molecule?
The value was 0.0.

What about the “biomass accumulation 14 days after treatment, % of untreated” value ([4]; dose 3 (3x, 240 g ai/ha)) of the same molecule?
Its value is 96.1%.

And the “plant height 14 days after treatment, % of untreated” value ([4]; dose 3 (3x, 240 g ai/ha))?
Its value is 97.0%.

And the “Phytotoxicity Index (0-9) 14 days” value ([4]; dose 4 (4x, 320 g ai/ha))?
Its value is 0.0.

And the “biomass accumulation 14 days after treatment, % of untreated” value ([4]; dose 4 (4x, 320 g ai/ha))?
The value was 84.3%.

And the “plant height 14 days after treatment, % of untreated” value ([4]; dose 4 (4x, 320 g ai/ha))?
Its value is 92.1%.

What about the “Phytotoxicity Index (0-9) 14 days” value ([4]; dose 5 (5x, 400 g ai/ha)) of the same molecule?
Its value is 0.0.

What about the “biomass accumulation 14 days after treatment, % of untreated” value ([4]; dose 5 (5x, 400 g ai/ha)) of the same molecule?
The value was 77.5%.

And the “plant height 14 days after treatment, % of untreated” value ([4]; dose 5 (5x, 400 g ai/ha))?
The value was 84.8%.

What about the “Phytotoxicity Index (0-9) 14 days” value ([4]; dose 6 (6x, 480 g ai/ha)) of the same molecule?
The value was 0.5.

And the “biomass accumulation 14 days after treatment, % of untreated” value ([4]; dose 6 (6x, 480 g ai/ha))?
The value was 70.7%.

And the “plant height 14 days after treatment, % of untreated” value ([4]; dose 6 (6x, 480 g ai/ha))?
The value was 79.8%.

Reference: patent US20150148234A1, “HERBICIDE-RESISTANT SUNFLOWER PLANTS WITH MULTIPLE HERBICIDE RESISTANT ALLELES OF AHASL1 AND METHODS OF USE” (NIDERA S.A., priority 2013, published 2015)
